Where a SMILES comes first, the peptide text is derived from it. [ ]: non-standard residue; d: D form. pGlu = O=C1CC[C@@H](C(=O)O)N1; Thz = O=C(O)[C@@H]1CSCN1
Key:
[1] = Antitoxic activity: protection of rats against acetaldehyde toxicity; type: in vivo, COBS CD(SD) Rats; conditions: 0.5 mM/kg oral (2 administrations); acetaldehyde 2150 mg/kg per os; mortality up to 72 hours
Experimental: (§1) The antitoxic activity was tested by determining the capability of the compounds of the invention to protect rats against formaldehyde and acetaldehyde toxicities (Sprince et al., Agents and Actions, 9, 407, 1979). COBS CD(SD) Rats (C. River) weighing 180-200 g fasted since the night before were orally administered with the test compounds half an hour before and 5 hours after the oral administration of the toxic agent. Formaldehyde was administered at the dose of 900 mg/kg per os and acetaldehyde at the dose of 2150 mg/kg per os; mortality was controlled up to 72 hours later. […] The activity of the compounds of the invention is similar to that of ascorbic acid and L-cysteine. Since acetaldehyde and formaldehyde are an important portion of the toxic agents contained in cigarette smoke, these novel compounds are very important in the treatment of all the lung pathologies connected to tobacco abuse or to atmosphere pollution. The antiradical activity was tested against doxorubicin mortality in the mouse (R. D. Olson et al., Life Sci., 29, 1393, 1981). Groups of 10 male CD-1 mice (C. River) weighing 18-20 g were treated orally with the tested compounds; one hour later doxorubicin was administered at the dose of 22 mg/kg i.p. (10 ml/kg). […]

[2] = Antiradical activity: protection against doxorubicin mortality in the mouse; type: in vivo, male CD-1 mice; conditions: 0.5 mM/kg per os 4 times in two days; doxorubicin 22 mg/kg i.p.; mortality checked for 14 days
Experimental: as §1

[3] = system: prednisolone-immunodepressed murine peritoneal macrophages; test: Superoxide anion production by prednisolone-immunodepressed murine peritoneal macrophages (cytochrome C reduction, PMA stimulated); type: in vivo, mice; conditions: for Reduced cytochrome C nmoles/1 × 10^6 macrophages (mean ± s.e.): 200 mg/kg/die i.p. + prednisolone 0.5 mg/kg/die s.c., 11 days, macrophages stimulated with phorbol myristate acetate; for Activity on superoxide anion production compared with PGT: same weight dosage as PGT
Experimental: Since the production of the superoxide anion (O2.) plays an important role in macrophage antimicrobial activity (N. P. Cumming, M. J. Pabst, J. Exp. Med., 152, 1659, 1980), the test for stimulation of the superoxide anion production in macrophages by medicaments is very important in the evaluation of the immuno-stimulating activity. Therefore, O2. production in isolated peritoneal macrophages from prednisolone-immunodepressed animals treated with the compounds of the invention was evaluated. Mice were treated subcutaneously for 11 days with 0.5 mg/kg/day with prednisolone and with the tested compounds at a dose of 100 mg/kg intraperitoneally twice a day, whereas the day of killing they received the only compounds of the invention. Then macrophages were isolated by means of peritoneal washing and cultured in RPMI-1640 added with 10% bovine foetal serum at a concentration of 1×10^6 cells/ml and at a temperature of +37° C. 1 ml aliquots of the cell suspension were incubated for 15 min. at 37° C. with cytochrome C from horse hearth and stimulated with phorbol myristate acetate (H. Nielsen, Eur. J. Clin. Pharmacol., 30, 99, 1986). After that, a spectrophotometric determination of reduced ferricytochrome C at λ=550 nm was carried out, using an extinction coefficient E (550)=29.5 mM.

[4] = Antitoxic activity: protection of rats against formaldehyde toxicity; type: in vivo, COBS CD(SD) Rats; conditions: 0.5 mM/kg oral (2 administrations); formaldehyde 900 mg/kg per os; mortality up to 72 hours
Experimental: as §1

Row | Structure (SMILES) | Protection against acetaldehyde mortality [1] [%] | Protection against doxorubicin mortality [2] [%] | Reduced cytochrome C nmoles/1 × 10^6 macrophages (mean ± s.e.) [3] | Activity on superoxide anion production compared with PGT [3] | Protection against formaldehyde mortality [4] [%]
1 | O=C(O)[C@@H]1CSCN1C(=O)[C@@H]1CCC(=S)N1 [Ib, 3-L-(5-thioxoprolyl)thiazolidine-4-carboxylic acid] | 60 | 50 | 9.17 ± 0.68 nmoles/1 × 10^6 macrophages | higher activities than that of PGT | 70
2 | O=C1CC[C@@H](C(=O)N2CSC[C@H]2C(=O)O)N1 [PGT, 3-L-pyroglutamyl-L-thiazolidine-4-carboxylic acid, reference compound] ([pGlu]-[Thz]-OH) |  |  | 8.33 ± 0.77 nmoles/1 × 10^6 macrophages |  | 
3 | CCOC(=O)[C@@H]1CSCN1C(=O)[C@@H]1CCC(=S)N1 [Ia, Ethyl 3-L-(L-5-thioxoprolyl)thiazolidine-4-carboxylate] | 70 | 40 | 9.15 ± 0.68 nmoles/1 × 10^6 macrophages | higher activities than that of PGT | 60
